Reference: US20200249573A1, “COMPOSITION FOR RESIST UNDERLAYER FILM FORMATION, UNDERLAYER FILM FOR LITHOGRAPHY, AND PATTERN FORMATION METHOD” (MITSUBISHI GAS CHEMICAL COMPANY, INC., priority 2016, published 2020)

Assay: Solubility of the compound in PGMEA (safe solvent)
Settings: 23° C.; for solubility in PGMEA (amount of dissolution): ultrasonic waves 30 minutes, visual observation
Procedure: The solubility of the obtained compound in propylene glycol monomethyl ether acetate (PGMEA) was measured as the solubility of the compound in a safe solvent. The solubility was evaluated according to the following criteria utilizing the amount of dissolution in PGMEA. The amount of dissolution in PGMEA was measured at 23° C. by precisely weighing the compound into a test tube, adding PGMEA so as to attain a predetermined concentration, applying ultrasonic waves for 30 minutes in an ultrasonic cleaner, then visually observing the subsequent state of the fluid, and conducting evaluation on the basis of the concentration of the amount of complete dissolution.
A: 5.0% by mass<Amount of dissolution
B: 3.0% by mass<Amount of dissolution<5.0% by mass
C: Amount of dissolution<3.0% by mass

## Oc1ccc([Te](Cl)(Cl)c2ccc(O)cc2)cc1 [BHPT, bis(4-hydroxyphenyl)tellurium dichloride]
  solubility in PGMEA, evaluation: A (5.0% by mass<Amount of dissolution)
  solubility in PGMEA (amount of dissolution): ≥ 5 % by mass

## CC1(OC(=O)COc2ccc([Te](Cl)(Cl)c3ccc(OCC(=O)OC4(C)C5CC6CC(C5)CC4C6)cc3)cc2)C2CC3CC(C2)CC1C3 (stereo not shown) [BHPT-ADBAC, bis(4-(2-methyl-2-adamantyloxycarbonylmethoxy)phenyl)tellurium dichloride]
  solubility in PGMEA, evaluation: A (5.0% by mass<Amount of dissolution)
  solubility in PGMEA (amount of dissolution): ≥ 5 % by mass

## CC(C)(C)OC(=O)Oc1ccc([Te](Cl)(Cl)c2ccc(OC(=O)OC(C)(C)C)cc2)cc1 [BHPT-BOC, bis(tert-butoxycarboxyphenyl)tellurium dichloride]
  solubility in PGMEA, evaluation: A (5.0% by mass<Amount of dissolution)
  solubility in PGMEA (amount of dissolution): ≥ 5 % by mass

## CCOC(C)Oc1ccc([Te](Cl)(Cl)c2ccc(OC(C)OCC)cc2)cc1 (stereo not shown) [BHPT-EE, bis(ethoxyethylphenyl)tellurium dichloride]
  solubility in PGMEA, evaluation: A (5.0% by mass<Amount of dissolution)
  solubility in PGMEA (amount of dissolution): ≥ 5 % by mass

## Oc1ccc([Te](Cl)(Cl)c2ccc(O)cc2O)cc1 [CCHT, (2,4-dihydroxyphenyl) (4-hydroxyphenyl)tellurium dichloride]
  solubility in PGMEA, evaluation: A (5.0% by mass<Amount of dissolution)
  solubility in PGMEA (amount of dissolution): ≥ 5 % by mass

## CC1(OC(=O)COc2ccc([Te](Cl)(Cl)c3ccc(OCC(=O)OC4(C)C5CC6CC(C5)CC4C6)cc3OCC(=O)OC3(C)C4CC5CC(C4)CC3C5)cc2)C2CC3CC(C2)CC1C3 (stereo not shown) [CCHT-ADBAC]
  solubility in PGMEA, evaluation: A (5.0% by mass<Amount of dissolution)
  solubility in PGMEA (amount of dissolution): ≥ 5 % by mass

## Oc1ccc([Te](Cl)(Cl)c2ccc(O)c(-c3ccccc3)c2)cc1-c1ccccc1 [Ph-BHPT, bis(3-phenyl-4-hydroxyphenyl)tellurium dichloride]
  solubility in PGMEA, evaluation: A (5.0% by mass<Amount of dissolution)
  solubility in PGMEA (amount of dissolution): ≥ 5 % by mass

## CC1(OC(=O)COc2ccc([Te](Cl)(Cl)c3ccc(OCC(=O)OC4(C)C5CC6CC(C5)CC4C6)c(-c4ccccc4)c3)cc2-c2ccccc2)C2CC3CC(C2)CC1C3 (stereo not shown) [Ph-BHPT-ADBAC]
  solubility in PGMEA, evaluation: A (5.0% by mass<Amount of dissolution)
  solubility in PGMEA (amount of dissolution): ≥ 5 % by mass

## Oc1ccc([Te]c2ccc(O)c(-c3ccccc3)c2)cc1-c1ccccc1 [Ph-TDP, bis(3-phenyl-4-hydroxyphenyl)tellurium]
  solubility in PGMEA, evaluation: A (5.0% by mass<Amount of dissolution)
  solubility in PGMEA (amount of dissolution): ≥ 5 % by mass

## CC1(OC(=O)COc2ccc([Te]c3ccc(OCC(=O)OC4(C)C5CC6CC(C5)CC4C6)c(-c4ccccc4)c3)cc2-c2ccccc2)C2CC3CC(C2)CC1C3 (stereo not shown) [Ph-TDP-ADBAC]
  solubility in PGMEA, evaluation: A (5.0% by mass<Amount of dissolution)
  solubility in PGMEA (amount of dissolution): ≥ 5 % by mass

## CC(C)(C)OC(=O)COc1ccc([Te]c2ccc(OCC(=O)OC(C)(C)C)c(-c3ccccc3)c2)cc1-c1ccccc1 [Ph-TDP-BOC]
  solubility in PGMEA, evaluation: A (5.0% by mass<Amount of dissolution)
  solubility in PGMEA (amount of dissolution): ≥ 5 % by mass

## CCOC(C)Oc1ccc([Te](Cl)(Cl)c2ccc(OC(C)OCC)c(-c3ccccc3)c2)cc1-c1ccccc1 (stereo not shown) [Ph-TDP-EE]
  solubility in PGMEA, evaluation: A (5.0% by mass<Amount of dissolution)
  solubility in PGMEA (amount of dissolution): ≥ 5 % by mass

## Oc1ccc([Te]c2ccc(O)cc2)cc1 [TDP, 4,4′-telluriumdiphenol]
  solubility in PGMEA, evaluation: A (5.0% by mass<Amount of dissolution)
  solubility in PGMEA (amount of dissolution): ≥ 5 % by mass

## CC1(OC(=O)COc2ccc([Te]c3ccc(OCC(=O)OC4(C)C5CC6CC(C5)CC4C6)cc3)cc2)C2CC3CC(C2)CC1C3 (stereo not shown) [TDP-ADBAC]
  solubility in PGMEA, evaluation: A (5.0% by mass<Amount of dissolution)
  solubility in PGMEA (amount of dissolution): ≥ 5 % by mass
